# Strand notation (5' to 3'): a small letter for the sugar, then the base; units joined by * are phosphorothioate-linked, units joined directly phosphodiester-linked; [ ] holds rarer units or linkages, { } end groups; capitals alone tell only the bases. e = 2'-O-(2-methoxyethyl) (MOE); [5mC] = 5-methylcytosine; d = 2'-deoxy (DNA)
# Tests used:
# [1] = test system: human B7-2; test: Cell surface expression of B7-2 in transfected COS-7 cells by flow cytometry; format: cell-based; parameters: % Control Protein: concentration or dose not given beside the values; details: hB7-2 protein, flow cytometry; Table 5
# Experimental: A T-175 flask was seeded at 75% confluency with COS-7 cells (ATCC accession No. CRL 1651). The plasmid pcB7-1 was introduced into cells by standard calcium phosphate transfection. Following a 4 hour transfection, the cells were trypsinized and seeded in 12-well dishes at 80% confluency. The cells were allowed to adhere to the plastic for 1 hour and were then washed with phosphate-buffered saline (PBS). OptiMEM™ (GIBCO-BRL, Gaithersburg, Md.) medium was added along with 15 μg/mL of Lipofectin™ (GIBCO-BRL, Gaithersburg, Md.) and oligonucleotide at the indicated concentrations. After four additional hours, the cells were washed with phosphate buffered saline (PBS) and incubated with fresh oligonucleotide at the same concentration in DMEM (Dulbecco et al., Virol., 1959, 8, 396; Smith et al., Virol., 1960, 12, 185) with 10% fetal calf sera (FCS).
# In order to monitor the effects of oligonucleotides on cell surface expression of B7-1, treated COS-7 cells were harvested by brief trypsinization 24-48 hours after oligonucleotide treatment. The cells were washed with PBS, then resuspended in 100 μL of staining buffer (PBS, 0.2% BSA, 0.1% azide) with 5 μL conjugated anti-B7-1-antibody (i.e., anti-hCD80-FITC, Ancell, Bayport, Minn.; FITC: fluorescein isothiocyanate). The cells were stained for 30 minutes at 4° C., washed with PBS, resuspended in 300 μL containing 0.5% paraformaldehyde. Cells were harvested and the fluorescence profiles were determined using a flow cytometer.
# In an initial screen, the ability of hB7-2 oligonucleotides to inhibit B7-2 expression was evaluated by measuring the cell surface expression of B7-2 in transfected COS-7 cells by flow cytometry. The methods used were similar to those given in Example 2, with the exceptions that (1) COS-7 cells were transfected with the plasmids pbcB7-2 or BBG-58, a human ICAM-1 (CD54) expression vector (R&D Systems, Minneapolis, Minn.) introduced into cells by standard calcium phosphate transfection, (2) the oligonucleotides used were those described in Table 2, and (3) a conjugated anti-B7-2 antibody (i.e., anti-hCD86-FITC or anti-CD86-PE, PharMingen, San Diego, Calif.; PE: phycoerythrin) was used during flow cytometry.
# B7 antisense oligonucleotides were tested for their effect on cell surface expression of both B7-1 and B7-2. Cell surface expression was measured as described in Example 1. Experiments were done for both human B7 and mouse B7.
# The oligonucleotides were screened as described in Example 2 except that the concentration of oligonucleotide was varied as shown in Table 19.
# [2] = test system: hB7-2 mRNA; test: Ribonuclease protection assay of hB7-2 mRNA in transfected COS-7 cells; format: cell-based, human; parameters: % Control RNA Expression: concentration or dose not given beside the values; details: for % Control RNA Expression: hB7-2 mRNA, Table 5
# Experimental: For ribonuclease protection assays, cells were harvested 18 hours after completion of oligonucleotide treatment using a Totally RNA™ kit (Ambion, Austin, Tex.). The probes for the assay were generated from plasmids pcB7-2 (linearized by digestion with Bgl II) and pTRI-b-actin (Ambion Inc., Austin, Tex.). In vitro transcription of the linearized plasmid from the SP6 promoter was performed in the presence of α-^32P-UTP (800 Ci/mmole) yielding an antisense RNA complementary to the 3′ end of B7-2 (position 1044-1391). The probe was gel-purified after treatment with DNase I to remove DNA template. Ribonuclease protection assays were carried out using an RPA II™ kit (Ambion) according to the manufacturer's directions. Total RNA (5 μg) was hybridized overnight, at 42° C., with 10^5 cpm of the B7-2 probe or a control beta-actin probe. The hybridization reaction was then treated, at 37° C. for 30 minutes, with 0.4 units of RNase A and 2 units of RNase T1. Protected RNA was precipitated, resuspended in 10 μL of gel loading buffer and electrophoresed on a 6% acrylamide gel with 50% w/v urea at 20 W. The gel was then exposed and the lanes quantitated using a PhosphorImager (Molecular Dynamics, Sunnyvale, Calif.) essentially according to the manufacturer's instructions.
# The oligonucleotides were screened as described in Example 4 except that the concentration of oligonucleotide was varied as shown in Table 13. Mismatch control oligonucleotides were included.
# [3] = test system: Human B7-2 mRNA; test: Human B7-2 mRNA expression in electroporated THP-1 cells induced with LPS and dibutyryl cAMP; format: cell-based; details: THP-1 cells electroporated at 10 micromolar oligonucleotide, LPS and dibutyryl cAMP (500 μM) 16 hours
# Text: The human promonocytic leukaemia cell line, THP-1 (American Type Culture Collection, Manassas, Va.) was maintained in RPMI 1640 growth media supplemented with 10% fetal calf serum (FCS; Life Technologies, Rockville, Md.). A total of 1×10^7 cells were electroporated at an oligonucleotide concentration of 10 micromolar in 2 mm cuvettes, using an Electrocell Manipulator 600 instrument (Biotechnologies and Experimental Research, Inc.) employing 200 V, 1000 μF. Electroporated cells were then transferred to petri dishes and allowed to recover for 16 hrs Cells were then induced with LPS and dibutyryl cAMP (500 μM) for 16 hours. RNA was isolated and processed as described in previous examples.
Substance,% Control Protein [1],% Control RNA Expression [2],% mRNA EXPRESSION [3],% mRNA INHIBITION [3],other results
9133 (antisense dT*dT*dC*dC*dA*dG*dG*dT*dC*dA*dT*dG*dA*dG*dC*dC*dA*dT*dT*dA) [compound 9133],70.2%,46.0%,,,
9134 (antisense dC*dA*dT*dA*dA*dG*dG*dT*dG*dT*dG*dC*dT*dC*dT*dG*dA*dA*dG*dT*dG) [compound 9134],88.8%,94.5%,,,
9135 (antisense dT*dT*dA*dC*dT*dC*dA*dT*dG*dG*dT*dA*dA*dT*dG*dT*dC*dT*dT*dT) [compound 9135],98.2%,83.4%,,,
9136 (antisense dA*dT*dT*dA*dA*dA*dA*dA*dC*dA*dT*dG*dT*dA*dT*dC*dA*dC*dT*dT) [compound 9136],97.1%,103.1%,,,
9137 (antisense dG*dG*dA*dA*dC*dA*dC*dA*dG*dA*dA*dG*dC*dA*dA*dG*dG*dT*dG*dG*dT) [compound 9137],80.5%,78.1%,,,
9138 (antisense dC*dC*dG*dT*dA*dC*dC*dT*dC*dC*dT*dA*dA*dG*dG*dC*dT*dC*dC*dT) [compound 9138],86.4%,65.9%,,,
9139 (antisense dC*dC*dC*dA*dT*dA*dG*dT*dG*dC*dT*dG*dT*dC*dA*dC*dA*dA*dA*dT) [compound 9139],47.9%,32.6%,,,
10367 (antisense dG*dC*dA*dC*dA*dG*dC*dA*dG*dC*dA*dT*dT*dC*dC*dC*dA*dA*dG*dG) [compound 10367],71.3%,52.5%,,,
10368 (antisense dT*dT*dG*dC*dA*dA*dA*dT*dT*dG*dG*dC*dA*dT*dG*dG*dC*dA*dG*dG) [compound 10368],81.0%,84.5%,,,
10369 (antisense dT*dG*dG*dT*dA*dT*dG*dG*dG*dC*dT*dT*dT*dA*dC*dT*dC*dT*dT*dT) [compound 10369],71.3%,81.5%,,,
10370 (antisense dA*dA*dA*dA*dG*dG*dT*dT*dG*dC*dC*dC*dA*dG*dG*dA*dA*dC*dG*dG) [compound 10370],84.3%,83.2%,,,
10371 (antisense dG*dG*dG*dA*dG*dT*dC*dC*dT*dG*dG*dA*dG*dC*dC*dC*dC*dC*dT*dT) [compound 10371],97.3%,92.9%,,,
10372 (antisense dC*dC*dA*dT*dT*dA*dA*dG*dC*dT*dG*dG*dG*dC*dT*dT*dG*dG*dC*dC) [compound 10372],101.7%,82.5%,,,
10373 (antisense dT*dG*dC*dG*dA*dG*dC*dT*dC*dC*dC*dC*dG*dT*dA*dC*dC*dT*dC*dC) [compound 10373],43.5%,32.7%,,,"% mRNA EXPRESSION ([2]; human B7-2 mRNA, Table 12): 24%; % mRNA INHIBITION ([2]; human B7-2 mRNA, Table 12): 76%"
113131 (antisense e[5mC]*eG*eT*eG*eT*dG*dT*d[5mC]*dT*dG*dT*dG*d[5mC]*dT*dA*eG*eT*e[5mC]*e[5mC]*e[5mC]) [compound 113131],,,13%,87%,
113132 (antisense eG*e[5mC]*eT*eG*e[5mC]*dT*dT*d[5mC]*dT*dG*d[5mC]*dT*dG*dT*dG*eA*e[5mC]*e[5mC]*eT*eA) [compound 113132],,,17%,83%,
113133 (antisense eT*eA*eT*eT*eT*dG*d[5mC]*dG*dA*dG*d[5mC]*dT*d[5mC]*d[5mC]*d[5mC]*e[5mC]*eG*eT*eA*e[5mC]) [compound 113133],,,214%,,
113134 (antisense eG*e[5mC]*eA*eT*eA*dA*dG*d[5mC]*dA*d[5mC]*dA*dG*d[5mC]*dA*dG*e[5mC]*eA*eT*eT*e[5mC]) [compound 113134],,,27%,73%,
113135 (antisense eT*e[5mC]*e[5mC]*eA*eA*dA*dA*dA*dG*dA*dG*dA*d[5mC]*d[5mC]*dA*eG*eA*eT*eG*e[5mC]) [compound 113135],,,66%,34%,
113136 (antisense eA*eA*eA*eT*eG*d[5mC]*d[5mC]*dT*dG*dT*d[5mC]*d[5mC]*dA*d[5mC]*dT*eG*eT*eA*eG*e[5mC]) [compound 113136],,,81%,19%,
113137 (antisense e[5mC]*eT*eT*e[5mC]*eA*dG*dA*dG*dG*dA*dG*d[5mC]*dA*dG*d[5mC]*eA*e[5mC]*e[5mC]*eA*eG) [compound 113137],,,57%,43%,
113138 (antisense eG*eA*eA*eT*e[5mC]*dT*dT*d[5mC]*dA*dG*dA*dG*dG*dA*dG*e[5mC]*eA*eG*e[5mC]*eA) [compound 113138],,,12%,88%,
113140 (antisense eG*e[5mC]*eT*eT*eT*dG*dG*dT*dT*dT*dT*dG*dA*dG*dA*eG*eT*eT*eT*eG) [compound 113140],,,214%,,
113141 (antisense eA*eG*eG*e[5mC]*eT*dT*dT*dG*dG*dT*dT*dT*dT*dG*dA*eG*eA*eG*eT*eT) [compound 113141],,,126%,,
113142 (antisense eG*e[5mC]*eT*e[5mC]*eA*d[5mC]*dT*d[5mC]*dA*dG*dG*d[5mC]*dT*dT*dT*eG*eG*eT*eT*eT) [compound 113142],,,35%,65%,
113143 (antisense eG*eG*eT*e[5mC]*e[5mC]*dT*dG*d[5mC]*d[5mC]*dA*dA*dA*dA*dT*dA*e[5mC]*eT*eA*e[5mC]*eT) [compound 113143],,,118%,,
113144 (antisense eA*eG*e[5mC]*e[5mC]*e[5mC]*dT*dT*dG*dT*d[5mC]*d[5mC]*dT*dT*dG*dA*eT*e[5mC]*eT*eG*eA) [compound 113144],,,41%,59%,
